The results in this text go back to ChEMBL document CHEMBL1130609, “2-Pyridinyl-3-(4-methylsulfonyl)phenylpyridines: selective and orally active cyclooxygenase-2 inhibitors” (Bioorg Med Chem Lett, 1998).

In series [1] the target is T1, Prostaglandin G/H synthase 2 (Homo sapiens, UniProt P35354).
T1 sequence (P35354 whole entry): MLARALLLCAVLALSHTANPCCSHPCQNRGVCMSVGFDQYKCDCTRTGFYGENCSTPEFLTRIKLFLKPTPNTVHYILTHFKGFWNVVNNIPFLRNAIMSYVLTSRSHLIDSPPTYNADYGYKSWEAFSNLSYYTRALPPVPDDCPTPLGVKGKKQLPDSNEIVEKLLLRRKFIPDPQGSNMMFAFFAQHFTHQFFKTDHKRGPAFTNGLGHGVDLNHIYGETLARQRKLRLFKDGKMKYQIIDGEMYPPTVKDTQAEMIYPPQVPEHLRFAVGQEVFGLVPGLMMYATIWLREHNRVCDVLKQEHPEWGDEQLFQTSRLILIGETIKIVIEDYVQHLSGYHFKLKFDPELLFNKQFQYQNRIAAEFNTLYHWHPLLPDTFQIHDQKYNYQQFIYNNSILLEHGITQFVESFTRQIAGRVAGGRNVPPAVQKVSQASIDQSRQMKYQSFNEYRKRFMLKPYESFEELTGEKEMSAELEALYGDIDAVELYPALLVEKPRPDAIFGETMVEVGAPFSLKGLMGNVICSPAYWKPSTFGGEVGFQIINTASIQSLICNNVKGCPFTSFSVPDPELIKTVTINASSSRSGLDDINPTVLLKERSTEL
Description: Inhibition of Prostaglandin G/H synthase 2 was measured by the inhibition of PGE-2 produced by lipopolysaccharide-challenged HWB

For series [2], the target named is Prostaglandin G/H synthase 1 (Homo sapiens, UniProt P23219). Description: Inhibition of Prostaglandin G/H synthase 1 was measured by the inhibition of PGE-2 produced by microsomes from U937 cells at subsaturating arachidonic acid conc. The format is cell-based, U-937.
Series [3] deals with T1, Prostaglandin G/H synthase 2. Description: In vitro inhibition of PGE-2 produced by arachidonic acid-stimulated CHO cells stably expressing human Prostaglandin G/H synthase 2.
In series [4] the test system is Rattus norvegicus. Kind of series: In vivo potency at 10 mg/kg in the rat paw edema assay. In kind it is functional.
Series [5] relates to Rattus norvegicus. Description: Efficacy in rat paw edema assay upon oral administration. The format is functional.
Series [6] is described as follows: Compound was evaluated for plasma concentration in rats when administered at 20 mg/kg in methocel at 2 hr. In kind it is ADME, organism-based. Details: dose 20 mg/kg. As to conditions: rat, read-out: Cmax.
For series [7], the system named is Rattus norvegicus. Description: Efficacy in rat pyresis assay upon oral administration. In kind it is functional.
Series [8] is described as follows: Compound was evaluated for plasma concentration in rats when administered at 20 mg/kg in methocel at 0.5 hr. In kind it is ADME, organism-based. Details: dose 20 mg/kg. As to conditions: rat, read-out: Cmax.
Series [9] relates to Rattus norvegicus. Description: In vivo potency at 20 mg/kg in the rat paw edema assay. In kind it is functional.
The nature of series [10]: Compound was evaluated for plasma concentration in rats when administered at 20 mg/kg in methocel at 1 hr. The format is ADME, organism-based. Details: dose 20 mg/kg. Conditions: rat, read-out: Cmax.
In series [11] the test system is Rattus norvegicus. Kind of series: In vivo inhibitory dose in adjuvant-induced arthritis in rats. The format is functional.
Series [12] deals with Rattus norvegicus. Kind of series: Compound was evaluated for efficacy in rat paw edema assay upon oral administration. The format is functional.
For series [13], the system named is Rattus norvegicus. Kind of series: In vivo inhibitory dose in carrageenan-induced hyperalgesia in rats. In kind it is functional. Conditions: read-out: ID50 (the source's name).

The structures appear in SMILES notation. Bounds are passed on as bounds.

Chain of Prostaglandin G/H synthase 1 (P23219 whole entry): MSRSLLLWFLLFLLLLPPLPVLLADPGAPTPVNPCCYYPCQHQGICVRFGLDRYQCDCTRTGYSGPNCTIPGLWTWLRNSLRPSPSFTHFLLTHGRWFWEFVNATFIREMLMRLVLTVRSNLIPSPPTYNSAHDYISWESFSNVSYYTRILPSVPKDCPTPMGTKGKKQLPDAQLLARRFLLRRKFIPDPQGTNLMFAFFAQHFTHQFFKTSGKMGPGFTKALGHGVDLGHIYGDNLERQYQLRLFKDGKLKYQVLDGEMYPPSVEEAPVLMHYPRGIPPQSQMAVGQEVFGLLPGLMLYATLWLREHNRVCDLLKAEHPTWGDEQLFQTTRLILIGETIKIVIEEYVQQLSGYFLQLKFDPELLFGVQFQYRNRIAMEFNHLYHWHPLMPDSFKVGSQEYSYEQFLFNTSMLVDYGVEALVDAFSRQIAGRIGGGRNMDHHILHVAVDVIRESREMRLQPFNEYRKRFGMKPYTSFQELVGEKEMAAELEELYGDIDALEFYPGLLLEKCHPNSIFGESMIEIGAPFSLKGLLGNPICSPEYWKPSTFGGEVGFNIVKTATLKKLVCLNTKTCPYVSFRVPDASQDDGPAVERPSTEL

As for `Cc1cnc(-c2cccnc2)c(-c2ccc(S(C)(=O)=O)cc2)c1`, the IC50 in series [1] is 2100 nM; in series [2], 59000 nM; in series [3], 350 nM.
For `CS(=O)(=O)c1ccc(-c2cccnc2-c2cccnc2)cc1` the same measures were over 33000 nM, over 100000 nM and 610 nM.
In the case of `COc1nc(-c2ccc(F)cc2)c(-c2ccc(S(C)(=O)=O)cc2)cc1C#N`, the inhibition in vivo at 10 mg/kg in the series on Rattus norvegicus [4] is 16%.
Take `Cc1ccc(-c2ncc(Cl)cc2-c2ccc(S(N)(=O)=O)cc2)cn1`: the IC50 in series [1] was 2400 nM; in [2], 800 nM; in [3], 23 nM.
Take `Cc1ccncc1-c1ncc(Cl)cc1-c1ccc(S(C)(=O)=O)cc1`: the half-maximal inhibitory concentration (IC50) was 2700 nM in series [1], over 100000 nM in series [2] and 830 nM in series [3].
Take `CS(=O)(=O)c1ccc(-c2cc(C(F)(F)F)cnc2-c2cccnc2)cc1`: the ED50 with Rattus norvegicus [5] worked out at 1.7 mg/kg; in the series on Rattus norvegicus [7] it was 1.4 mg/kg. Further, in series [6], the concentration at 2 h was 24 µM. The same compound returned a concentration for half-maximal inhibition (IC50) in series [2] of 31000 nM.
The compound `CS(=O)(=O)c1ccc(-c2cc(Cl)cnc2-c2ccncc2)cc1` gave an IC50 in series [2] of 81000 nM.
With `CS(=O)(=O)c1ccc(-c2cc(Cl)cnc2-c2cccnc2)cc1`, the ED50 with Rattus norvegicus [5] came out at 2.3 mg/kg; in the series with Rattus norvegicus [7] it was 0.8 mg/kg. Also, the IC50 was found to be 900 nM in series [1], 19000 nM in series [2] and 34 nM in [3]. Also, the concentration at 2 h in [6] is 52 µM.
Regarding `CS(=O)(=O)c1ccc(-c2cc(Cl)cnc2-c2ccccn2)cc1`, the IC50 in [1] was determined as 5800 nM; in [2], 63000 nM; in series [3] it was 68 nM.
For `CS(=O)(=O)c1ccc(-c2cc(Cl)cnc2-c2ccc(C3CC3)nc2)cc1`, the ED50 in the series on Rattus norvegicus [5] was found to be 2 mg/kg; in the series on Rattus norvegicus [7] it was 4.9 mg/kg. Also, the concentration at 2 h in series [6] was determined as 9 µM. The figures for the 50% inhibitory concentration (IC50) in series [2] and in series [3] were 6000 nM and 16 nM, respectively.
For `CCc1ccc(-c2ncc(Cl)cc2-c2ccc(S(C)(=O)=O)cc2)cn1`, the ED50 is 1.6 mg/kg in the series with Rattus norvegicus [5] and 2.6 mg/kg in the series on Rattus norvegicus [7]. Moreover, the concentration at 0.5 h in series [8] is 9 µM. The compound also returned an IC50 in series [2] of 13000 nM.
In the series with Rattus norvegicus [9], `COc1cc(-c2ccc(S(C)(=O)=O)cc2)c(-c2ccc(F)cc2)c(C(F)(F)F)n1` registered an inhibition in vivo at 20 mg/kg of 12%.
Compound `CS(=O)(=O)c1ccc(-c2cccnc2-c2ccccc2)cc1` returned an ED50 in the series on Rattus norvegicus [5] of over 10 mg/kg. Moreover, the concentration at 0.5 h in series [8] was found to be 40 µM. This compound also returned an IC50 in series [2] of 20000 nM.
Turning to `Cc1cncc(-c2ncc(Cl)cc2-c2ccc(S(C)(=O)=O)cc2)c1`, the IC50 is 3800 nM in series [1], over 100000 nM in [2] and 87 nM in [3].
As for `Cc1ncccc1-c1ncc(Cl)cc1-c1ccc(S(C)(=O)=O)cc1`, the concentration for half-maximal inhibition (IC50) is 2600 nM in series [1], 45000 nM in series [2] and 1330 nM in series [3].
In the series with Rattus norvegicus [5], `CS(=O)(=O)c1ccc(-c2cc(Br)sc2-c2ccc(F)cc2)cc1` [DUP-697] gave an ED50 of 1.3 mg/kg.
`Cc1ccc(-c2ncc(Cl)cc2-c2ccc(S(C)(=O)=O)cc2)cn1` [ETORICOXIB]: the figures for the ED50 with Rattus norvegicus [5] and with Rattus norvegicus [7] were 0.6 mg/kg and 0.5 mg/kg, respectively. For the same compound, in series [2], the IC50 is 12000 nM. Moreover, the concentration at 1 h in series [10] came to 30 µM.
Regarding `COc1ccc2c(c1)c(CC(=O)O)c(C)n2C(=O)c1ccc(Cl)cc1` [INDOMETHACIN], the ID50 in the series on Rattus norvegicus [11] is 0.2 mg kg-1 day-1 b.i.d. Moreover, the figures for the ED50 in the series with Rattus norvegicus [12], with Rattus norvegicus [7] and in the series with Rattus norvegicus [13] were 2 mg/kg, 1.1 mg/kg and 1.5 mg/kg, respectively.

One may read the IC50 as the concentration that gives 50% inhibition. High values mean weaker potency in that assay, low ones greater potency in that assay. A word on the inhibition in vivo: it is the share of the control response that was lost under treatment. Low readings indicate a weak effect, high ones a strong effect.
